Test system: not listed separately
Assay: Assay C: metabolic stability in human liver microsomes (Human MST)
Type: in vitro ADME
Settings: pooled human liver microsomes, pH 7.6, 1 μM compound, 37° C., read-out: Human MST t1/2
Excerpt: Stability in human liver microsomes refers to the susceptibility of compounds to biotransformation in the context of selecting and/or designing drugs with favorable pharmacokinetic properties. The primary site of metabolism for many drugs is the liver. Human liver microsomes contain the cytochrome P450s (CYPs), and thus represent a model system for studying drug metabolization in vitro. Enhanced stability in human liver microsomes is associated with several advantages, including increased bioavailability and longer half-life, which can enable lower and less frequent dosing of patients. Thus, enhanced stability in human liver microsomes is a favorable characteristic for compounds that are to be used for drugs.
C. Assessment of Metabolic Stability in Human Liver Microsomes (Human MST)
The metabolic stability of the compounds according to the invention may be investigated as follows:
The metabolic degradation of the test compound is assayed at 37° C. with pooled human liver microsomes. The final incubation volume of 100 μL per time point contains TRIS buffer pH 7.6 at room temperature (0.1 M), MgCl2 (5 mM), microsomal protein (1 mg/mL) and the test compound at a final concentration of 1 μM. Following a short pre-incubation period at 37° C., the reactions are initiated by addition of beta-nicotinamide adenine dinucleotide phosphate, reduced form (NADPH, 1 mM), and terminated by transferring an aliquot into solvent after different time points. After centrifugation (10000 g, 5 min), an aliquot of the supernatant is assayed by LC-MS/MS for the amount of parent compound. The half-life (t1/2) is determined by the slope of the semi-logarithmic plot of the concentration-time profile.

Row | SMILES | half-life at 1 μM [h]
1 | CCN(C(=O)c1ccccc1-n1nccn1)[C@@H](C)CNc1ncc(C(F)(F)F)cn1 [Example 1] | 2
2 | CCN(C(=O)c1cccc(F)c1-n1nccn1)[C@@H](C)CNc1ncc(C(F)(F)F)cn1 [Example 18] | > 2
3 | CCN(C(=O)c1nc(C)ccc1-n1nccn1)[C@@H](C)CNc1ncc(C(F)(F)F)cn1 [Example 9] | 1.67
4 | CCN(C(=O)c1cnc(C)nc1-c1ccccc1)[C@@H](C)CNc1ncc(C(F)(F)F)cn1 [Example 17] | > 2

Test system: human MDR1 P-gp
Assay: Assay D: efflux in MDCK cells transfected with the human MDR1 gene
Type: in vitro ADME, canine
Settings: dog; MDCK-MDR1 monolayers, pH 7.4, 37° C.; read-out: MDCK efflux ratio (BA/AB)
Protocol: The MDCK assay provides information on the potential of a compound to pass the blood brain barrier. Permeability measurements across polarized, confluent MDCK-MDR1 cell monolayers grown on permeable filter supports are used as an in vitro absorption model: apparent permeability coefficients (PE) of the compounds across the MDCK-MDR1 cell monolayers are measured (pH 7.4, 37° C.) in apical-to-basal (AB) and basal-to-apical (BA) transport direction. The AB permeability (PEAB) represents drug absorption from the blood into the brain and the BA permeability (PEBA) drug efflux from the brain back into the blood via both, passive permeability as well as active transport mechanisms mediated by efflux and uptake transporters that are expressed on the MDCK-MDR1 cells, predominantly by the overexpressed human MDR1 P-gp. Identical or similar permeabilities in both transport directions indicate passive permeation, vectorial permeability points to additional active transport mechanisms. Higher PEBA than PEAB (PEBA/PEAB>5) indicates the involvement of active efflux mediated by MDR1 P-gp, which might compromises the goal to achieve sufficient brain exposure. Therefore this assay provides valuable support for selection of compounds applicable for further in vivo testing. High permeability not limited by efflux at the blood brain barrier is a favourable characteristic for compounds that are to be used for drugs acting primarily in the CNS
D. Assessment of Efflux in Madin-Darby Canine Kidney (MDCK) Cells Transfected with the Human MDR1 Gene
Apparent permeability coefficients (PE) of the compounds across the MDCK-MDR1 cell monolayers are measured (pH 7.4, 37° C.) in apical-to-basal (AB) and basal-to-apical (BA) transport direction. AB permeability (PEAB) represents drug absorption from the blood into the brain and BA permeability (PEBA) drug efflux from the brain back into the blood via both passive permeability as well as active transport mechanisms mediated by efflux and uptake transporters that are expressed on the MDCK-MDR1 cells, predominantly by the overexpressed human MDR1 P-gp. The compounds are assigned to permeability/absorption classes by comparison of the AB permeabilities with the AB permeabilities of reference compounds with known in vitro permeability and oral absorption in the human. Identical or similar permeabilities in both transport directions indicate passive permeation, vectorial permeability points to additional active transport mechanisms. Higher PEBA than PEAB indicates the involvement of active efflux mediated by MDR1 P-gp. Active transport is concentration-dependently saturable.
MDCK-MDR1 cells (1-2×10e5 cells/1 cm2 area) are seeded on filter inserts (Costar transwell polycarbonate or PET filters, 0.4 μm pore size) and cultured (DMEM) for 7 days. Subsequently, the MDR1 expression is boosted by culturing the cells with 5 mM sodium butyrate in full medium for 2 days. Compounds are dissolved in appropriate solvent (like DMSO, 1-20 mM stock solutions). Stock solutions are diluted with HTP-4 buffer (128.13 mM NaCl, 5.36 mM KCl, 1 mM MgSO4, 1.8 mM CaCl2, 4.17 mM NaHCO3, 1.19 mM Na2HPO4×7H2O, 0.41 mM NaH2PO4×H2O, 15 mM HEPES, 20 mM glucose, 0.25% BSA, pH 7.4) to prepare the transport solutions (0.1-300 μM compound, final DMSO<=0.5%). The transport solution (TL) is applied to the apical or basolateral donor side for measuring A-B or B-A permeability (3 filter replicates), respectively. The receiver side contains the same buffer as the donor side. Samples are collected at the start and end of experiment from the donor and at various time intervals for up to 2 hours also from the receiver side for concentration measurement by HPLC-MS/MS or scintillation counting. Sampled receiver volumes are replaced with fresh receiver solution.

Row | SMILES | efflux ratio
5 | CCN(C(=O)c1ccccc1-n1nccn1)[C@@H](C)CNc1ncc(C(F)(F)F)cn1 [Example 1] | < 3
6 | CCN(C(=O)c1cccc(F)c1-n1nccn1)[C@@H](C)CNc1ncc(C(F)(F)F)cn1 [Example 18] | < 3
7 | CCN(C(=O)c1nc(C)ccc1-n1nccn1)[C@@H](C)CNc1ncc(C(F)(F)F)cn1 [Example 9] | < 3
8 | CCN(C(=O)c1cnc(C)nc1-c1ccccc1)[C@@H](C)CNc1ncc(C(F)(F)F)cn1 [Example 17] | < 3
